The text below walks through data of ChEMBL document CHEMBL1150446, “Inhibition of human cytomegalovirus protease by benzoxazinones and evidence of antiviral activity in cell culture” (Bioorg Med Chem Lett, 1997).

Series [1] is described as follows: In vitro biological half-life was measured in human plasma. Type of series: ADME.
In series [2] the target is T1, Chymotrypsinogen B (Homo sapiens, UniProt P17538). Description: Inhibitory concentration against human chymotrypsin at a concentration of 10 uM.
Series [3] has as its target T2, Neutrophil elastase (Homo sapiens) (UniProt P08246).
T2 sequence (whole entry): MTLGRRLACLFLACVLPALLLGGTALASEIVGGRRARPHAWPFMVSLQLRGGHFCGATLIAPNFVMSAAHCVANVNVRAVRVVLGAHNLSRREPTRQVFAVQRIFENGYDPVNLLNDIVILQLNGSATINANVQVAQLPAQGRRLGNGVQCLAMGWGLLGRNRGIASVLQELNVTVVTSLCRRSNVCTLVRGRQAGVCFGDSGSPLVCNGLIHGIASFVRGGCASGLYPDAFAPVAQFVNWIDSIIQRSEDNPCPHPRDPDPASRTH
Nature of the series: Percent inhibition against human leukocyte elastase (HLE) at a concentration of 10 microgM.

The target in series [4] is T1, Chymotrypsinogen B. Description: Inhibitory concentration against human chymotrypsin.
In another series the target is T3, Neutrophil elastase (Homo sapiens, UniProt P08246).
T3 sequence (P08246 whole entry): T2 sequence (whole entry)
Nature of the series: Inhibitory concentration against human leukocyte elastase (HLE).

Series [5] addresses T2, Neutrophil elastase (Homo sapiens). Description: Percent inhibition against human leukocyte elastase (HLE) at a concentration of 100 microgM.
Series [6] has as its target T1, Chymotrypsinogen B. Nature of the series: Inhibitory concentration against human chymotrypsin at a concentration of 100 uM.

What is called half-life is the time needed for the level to fall by half in the phase considered. By inhibition is commonly meant the change of the read-out against control, counted positive when it falls. In general, IC50 refers to the point on the concentration scale where inhibition reaches its midpoint. Read a high IC50 as lower potency.

T1 sequence (P17538 34-164 limits assumed, other chains not shown): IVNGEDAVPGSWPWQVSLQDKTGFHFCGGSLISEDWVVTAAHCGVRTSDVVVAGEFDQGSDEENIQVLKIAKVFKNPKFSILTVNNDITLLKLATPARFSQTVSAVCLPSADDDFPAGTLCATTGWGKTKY
T1 sequence (P17538 167-263 limits assumed, other chains not shown): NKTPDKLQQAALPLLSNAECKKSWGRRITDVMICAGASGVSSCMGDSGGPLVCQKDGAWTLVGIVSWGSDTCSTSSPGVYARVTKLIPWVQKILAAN

In series [1], `Cc1c(NC(=O)c2ccccn2)ccc2nc(N[C@H](C)c3ccccc3)oc(=O)c12` yielded a half-life of 31 min. Further, the inhibition worked out at 28% on Chymotrypsinogen B [2] and 29% in series [3].
In the case of `Cc1cccc2nc(N[C@H](C)c3ccc(Br)cc3)oc(=O)c12`, the half-life in series [1] was found to be 50 min. The IC50 came to 140 nM on Chymotrypsinogen B [4] and 20 nM against Neutrophil elastase.
For the molecule `Cc1c(NC(=O)OC(C)(C)C)ccc2nc(N[C@H](C)c3ccccc3)oc(=O)c12`, the half-life in series [1] worked out at 30 min. On Chymotrypsinogen B [4], this molecule came in with a 50% inhibitory concentration (IC50) of 42000 nM.
In series [1], `COc1ccc(S(=O)(=O)Nc2ccc3nc(N[C@H](C)c4ccccc4)oc(=O)c3c2C)cc1` gave a half-life of 50 min. In addition, at Chymotrypsinogen B [4], half-maximal inhibition (IC50) required 3600 nM. In series [5], this molecule had an inhibition of 66%.
In series [1], `Cc1cccc2nc(NC(C)C)oc(=O)c12` registered a half-life of 107 min. The IC50 on Chymotrypsinogen B [4] was found to be 2000 nM; at Neutrophil elastase, 33 nM.
In turn, `Cc1cccc2nc(N[C@@H](C)c3ccccc3)oc(=O)c12` displayed a half-life in series [1] of 70 min. In addition, the IC50 on Chymotrypsinogen B [4] worked out at 180 nM; at Neutrophil elastase it was 44 nM.
`Cc1c(N(C)C)ccc2nc(N[C@H](C)c3ccccc3)oc(=O)c12`: the half-life in series [1] was 127 min. For the same molecule, the IC50 on Chymotrypsinogen B [4] stood at 65 nM; against Neutrophil elastase, 3200 nM.
`Cc1cccc2nc(N[C@H](C)c3ccccc3)oc(=O)c12` returned a half-life in series [1] of 67 min. Further, on Chymotrypsinogen B [4], the concentration for half-maximal inhibition (IC50) was determined as 88 nM.
`Cc1c(NC(=O)CN2CCCC2)ccc2nc(N[C@H](C)c3ccccc3)oc(=O)c12` came in with a half-life in series [1] of 32 min. Also, the inhibition came to 47% on Chymotrypsinogen B [6] and 36% in series [5].
On to `Cc1c(NC(=O)CN(C)C)ccc2nc(N[C@H](C)c3ccccc3)oc(=O)c12`, for which the half-life in series [1] was 32 min. At Chymotrypsinogen B [4], this molecule showed an IC50 of 2600 nM. The same molecule yielded an inhibition in series [5] of 67%.
